According to patent US12410472B2, “Method for evaluating the eye irritation potential of chemicals” (IMMUNOSEARCH, priority 2016, dated 2025):
Read-outs that look alike come from different tables or passages of the source. Marks after values point to notes of the source that are not given here.

What was measured:
[1] = tested on: reconstructed human corneal epithelium model (SkinEthic™ HCE)
Source text: The reconstructed human corneal epithelium model, (SkinEthic™ HCE) was purchased from Episkin in Lyon. The model consists of immortalized human corneal epithelial cells grown in a defined medium at the air-liquid interface. The tissue structure obtained is a multi-layer epithelium similar to the natural tissue structure of the human cornea, comprising 5-7 layers with a surface area of 0.5 cm^2.
Polyhedral cells and wing cells are also present. The tissue also comprises specific ultrastructures such as intermediate filaments, mature hemidesmosomes and desmosomes. […] The tissues are shipped on a semi-solid layer of agarose culture medium. Upon receipt, the tissues are transferred to maintenance medium (1 ml/well) in 6-well plates and incubated in a climatic chamber at 37° C., 5% CO2. The tissues are used 24 hours later.
Liquid products are tested for solubility in phosphate-buffered saline (PBS) or olive oil. In summary, 100 μl of the test product is mixed with 200 μl of PBS or olive oil.
The sample is mixed on a vortex mixer. Turbidity and possible phase separation are assessed by eye. The products are tested pure or diluted to 30%. Products that are not soluble in PBS or olive oil cannot be tested at 30%.
The procedure for applying liquid products to the tissues was optimized as follows: the chemicals are tested at two concentrations, 100% and 30%. In summary, the tissue surface is moistened by adding 20 μl of PBS at 37° C. and incubation for 10 min at 37° C./5% CO2. The corneal epithelia are then treated topically with 50±2 μL of the test product (corresponding to 100 μL/cm2) and incubated for 10 min at room temperature. The tissues are then washed with sterile PBS (2×25 ml) at 37° C. PBS is applied to the edge of the insert (not directly on the tissue) to create a gentle vortex that removes the chemical. The tissues on their inserts are then “embedded” in 5 ml of maintenance medium at room temperature for 30 min in order to remove as much as possible of the product remaining on the tissue surface. The medium is then removed by gently tapping the insert on absorbent paper, and 50 μl of maintenance medium at 37° C. is added. The inserts are then incubated for 6 h at 37° C./5% CO2.
In summary, corneal tissues are recovered with forceps and placed in tubes for rapid freezing in liquid nitrogen. The RNA is then extracted by the QIAzol technique (Qiagen, Courtaboeuf, France) with an “RNeasy Mini Kit” according to the manufacturer's instructions. In summary, the tissues are placed in 1 ml of QIAzol and homogenized using the TissueLyser II (Qiagen, Courtaboeuf, France) with 2 steel beads. After centrifugation, the supernatant is collected and 0.2 ml of bromochloro propane (Sigma, France) is added, then the whole is vigorously mixed. The homogenate is centrifuged at 12,000 g for 15 min at 4° C. The upper phase (aqueous phase) is added to 600 μl of 70% ethanol and immediately mixed by pipetting. The mixture is transferred to an RNeasy spin column placed on a 2 ml collection tube and the RNA is collected according to the manufacturer's instructions (Qiagen, Courtaboeuf, France).
In summary, the transcription of total RNA is performed with 1 μg of total RNA in a final volume of 20 μl using “Random Primers” (Invitrogen, France) and “SuperScript III Reverse Transcriptase” (Invitrogen, France) according to the manufacturer's instructions. Quantitative RT-PCR uses a PCR reagent mix: SYBR Green Real-Time PCR Master Mix (ROCHE, France) with 0.4 μM of each nucleotide primer in a final volume of 25 μl. The reaction is performed in an LC480 System (ROCHE, France). The amplification program comprises a cycle at 95° C. for 1 min, followed by 40 cycles with denaturation at 95° C. for 15 s, a hybridization and amplification phase at 60° C. for 15 s, followed by a final elongation phase at 72° C. for 40 s.

eye = settings: cited from earlier work; for GHS Class: Table 6, list of solid chemicals studied; for eye irritation category as stated in text and figure legends: control chemicals and chemicals of FIG. 1 and FIG. 2; for UN GHS: Table 1, list of liquid products studied
[2] = liquid products, category from LII at 100% and 30%
[3] = Table 3, results obtained by the Draize test, liquid products

Row | Molecule | EIT prediction [1, 2] | UN-GHS (eye; [3]) | also measured
1 | 1-Ethyl-3-methylimidazolium ethylsulfate | No Cat* | No Cat | 
2 | Oc1cccc2c(O)cccc12 [1,5-Naphthalenediol] |  |  | UN-GHS (eye; Draize test classification): Cat 2A; GHS Class (eye): Cat 2A; eye irritation category as stated in text and figure legends (eye; listed as naphthalene dione): Category 2
3 | C=CCCCCCCC=C [1,9-Decadiene] |  | No Cat | EIT prediction [1]: No Cat
4 | OCCCCCCCCCl [1-Chloroctan-8-ol] | Cat 1 | Cat 1 | UN GHS (eye): Cat 1
5 | O=C(O)Cc1cccc2ccccc12 [1-Naphthalene acetic acid] |  |  | UN-GHS (eye; Draize test classification): Cat 1; GHS Class (eye): Cat 1
6 | CC(C)(C)CC(C)(C)c1cc(Cc2cc(C(C)(C)CC(C)(C)C)cc(-n3nc4ccccc4n3)c2O)c(O)c(-n2nc3ccccc3n2)c1 [2,2′-Methylene-bis-(6-(2H-benzotriazol-2-yl)-4-(1,1,3,3-tetramethylbutyl)phenol)] |  |  | GHS Class (eye): No cat; eye irritation category as stated in text and figure legends (eye): No category
7 | CC(O)CC(C)O (stereo not shown) [2,4-Pentanediol] |  | No Cat | EIT prediction [1]: No Cat; eye irritation category as stated in text and figure legends (eye): No category
8 | O=C(Cl)c1c(Cl)cccc1Cl [2,6-Dichlorobenzoyl chloride] |  | Cat 2A | EIT prediction ([1]; human, 10 min): Cat 2
9 | C=C(C)C(=O)OCCOCC [2-Ethoxyethyl methacrylate] |  | No Cat | EIT prediction [1]: No Cat
10 | CCCC(C)CO (stereo not shown) [2-Methyl-1-pentanol] |  | Cat 2B | EIT prediction ([1]; human, 10 min): Cat 2; eye irritation category as stated in text and figure legends (eye): Category 2
11 | N#CCCCl [3-Chloropropionitrile] | Cat 2 | Cat 2B | 
12 | CC(C)=O [Acetone 100%, Acetone] | Cat 2 | Cat 2A | eye irritation category as stated in text and figure legends (eye): category 2
13 | C=CCO [Allyl alcohol] | Cat 2 | Cat 2A | 
14 | CC(C)(C)CC(C)(C)c1ccc(OCCOCC[N+](C)(C)Cc2ccccc2)cc1 [Benzethonium chloride 10%, Benzethonium chloride] | Cat 1 |  | 
15 | N=C(NCCCCCCNC(=N)NC(=N)Nc1ccc(Cl)cc1)NC(=N)Nc1ccc(Cl)cc1.O=C(O)[C@H](O)[C@@H](O)[C@H](O)[C@H](O)CO.O=C(O)[C@H](O)[C@@H](O)[C@H](O)[C@H](O)CO [Chlorhexidine gluconate (20%), Chlorhexidine gluconate] | Cat 2 | Cat 2A | 
16 | [H]/N=C(\N/C(=N/[H])NCCCCCCNC(=N)NC(=N)Nc1ccc(Cl)cc1)Nc1ccc(Cl)cc1 [Chlorhexidine] |  | Cat 1 | EIT prediction ([1]; human, 10 min): Cat 1; UN GHS (eye): Cat 1
17 | CCN(CC)C(=O)c1cccc(C)c1 [Diethyl toluamide] |  | Cat 2B | EIT prediction ([1]; human, 10 min): Cat 2
18 | CCN(CC)CCC#N [Diethylaminopropionitrile] | Cat 1 | Cat 1 | UN GHS (eye): Cat 1
19 | CCCSSCCC [Dipropyl disulfide] |  | No Cat | EIT prediction [1]: No Cat
20 | CCOC(=O)C(C)C(C)=O (stereo not shown) [Ethyl-2-methylacetoacetate] |  | Cat 2B | EIT prediction ([1]; human, 10 min): Cat 2*
21 | O=C1CCCO1 [Gamma-butyrolactone] | Cat 2 | Cat 2A | 
22 | OCC(O)CO [Glycerol] |  |  | EIT prediction [1]: No Cat; eye irritation category as stated in text and figure legends (eye): No category

Row | Molecule | EIT prediction [1, 2] | UN-GHS (eye; [3]) | also measured
23 | O=C(O)CO [Glycolic acid (10%), Glycolic acid] |  | Cat 2B | 
24 | CCCCCCCCCCCCCCCC[N+](C)(C)C.[Br-] [Hexadecyltrimethylammonium bromide 6%, Hexadecyltrimethylammonium bromide] |  | Cat 1 | EIT prediction ([1]; human, 10 min): Cat 1; UN GHS (eye): Cat 1
25 | CC(O)C(=O)O (stereo not shown) [Lactic acid] |  | Cat 1 | EIT prediction ([1]; human, 10 min): Cat 1; UN GHS (eye): Cat 1; eye irritation category as stated in text and figure legends (eye): category 1
26 | CCC(C)=O [Methyl ethyl ketone] | Cat 2 |  | eye irritation category as stated in text and figure legends (eye): category 2
27 | COC(=O)CS [Methyl thioglycolate] |  | Cat 1 | EIT prediction ([1]; human, 10 min): Cat 1; UN GHS (eye): Cat 1; eye irritation category as stated in text and figure legends (eye): category 1
28 | CCCCCCCC[Si](OC)(OC)OC [Octyltrimethoxysilane (SILAN 108), Octyltrimethoxysilane] |  | No Cat | EIT prediction [1]: No Cat*
29 | CCCOCC(C)O (stereo not shown) [Propasol Solvent P] | Cat 1 | Cat 2A | 
30 | [Na+].[OH-] [Sodium hydroxide 0.3%, Sodium hydroxide] | Cat 2 | Cat 2A | 
31 | CCCCCCCCCCCCOS(=O)(=O)[O-].[Na+] [Sodium lauryl sulfate 3%, Sodium lauryl sulfate] | No Cat |  | 
32 | C=CC(=O)OCCOCCOCCOCCOC(=O)C=C [Tetraethylene glycol diacrylate] |  | Cat 1 | EIT prediction ([1]; human, 10 min): Cat 2; UN GHS (eye): Cat 1
33 | CO[Si](CCCNCCN)(OC)OC [[3-(2-Aminoethylamino)propyl]trimethoxysilane] |  | cat 1 | EIT prediction ([1]; human, 10 min): Cat 1; UN GHS (eye): Cat 1
34 | CCCCCCC(C=O)=Cc1ccccc1 [alpha hexyl cinnamaldehyde] |  |  | eye irritation category as stated in text and figure legends (eye): category 2
35 | CC(C)C=O [iso-Butanal] | Cat 2 | Cat 2B | 
36 | CCCCCCBr [n-Hexyl bromide] | No Cat* | No Cat | 
37 | CCCCCCCCCCCCOS(=O)(=O)[O-].[Na+] [sodium lauryl sulfate (15%), sodium lauryl sulfate] |  |  | eye irritation category as stated in text and figure legends (eye): category 1
38 | Benzalkonium chloride [Benzalkonium chloride 5%] | Cat 1 | Cat 1 | UN GHS (eye): Cat 1
39 | Triton X100 [Triton X100 1%] | No Cat | No Cat | 
40 | Triton X100 [Triton X100 5%] | Cat 2 | Cat 2A | 
41 | Triton X100 [Triton X100 10%] | Cat 1 | Cat 1 | UN GHS (eye): Cat 1
42 | Triton X-100 [Triton X-100 10%] | Cat 1 | Cat 1 | UN GHS (eye): Cat 1
43 | benzalkonium chloride [benzalkonium chloride (10%)] |  |  | eye irritation category as stated in text and figure legends (eye): category 1
